Publication PMC10721329, “Quisinostat is a brain-penetrant radiosensitizer in glioblastoma” (JCI Insight, 2023)
Where “and” joins values, the source holds several entries; their conditions need not be identical. Equal values may be shown once.

Experiments:
[1] = Stability in mouse plasma with esterase inhibitors (BNPP, PMSF, DTNB); assay type: in vitro ADME; settings: 37 C, QST conc 500nM
Protocol: Hydroxamic acid–based compounds have been reported to display poor stability and high plasma clearance due to the presence of arylesterases and carboxylesterases in rodent blood ([34]). Therefore, we measured the stability of QST in mouse plasma and brain to determine whether drug degradation occurred during our sample preparations and equilibrium dialyses for the determination of unbound drug level (performed at 37°C). […] QST degradation was also observed in mouse brain homogenate (Figure 6B). However, perfusion of mice before brain collection prevented rapid drug degradation in the brain matrix. […] Degradation of QST can also be constrained if plasma and brain samples are processed at 4°C (Supplemental Figure 4A). All subsequent sample preparations were therefore performed on ice-cold baths to avoid degradation of QST in our PK analyses. […] The observed stability is probably due to the absence of esterases in human matrices, which are responsible for degradation of QST ([34]). Because we employed QST in several in vitro studies (Figures 1–4), the stability of the molecule was also tested in the cell media used to culture GSCs (neurobasal medium; see Methods).
Stability Study in Mouse Plasma, Mouse Brain, Human Plasma, Human Brain, and Neural […]
The stability of QST was determined in BALB/c mouse plasma, male nude athymic perfused and nonperfused mouse brain homogenate (1:9 w/v of PBS; pH 7.4), human brain (obtained from VRL Eurofins) homogenate (1:4 w/v of PBS; pH 7.4), pooled human plasma (Innovative Research), and neurobasal media. QST stock solutions (1 mM) were prepared in acetonitrile, subsequently diluted in a 40% methanol mixture, and added t o the matrices to make final concentrations of 100 nM or 10 nM. Then 50 or 30 µL of either plasma or brain homogenate containing QST were aliquoted into 1.5-mL microcentrifuge tubes (Eppendorf) and were incubated at either 4 °C or 37 °C for 0, 2, 4, 6, 12, or 24 hours (n = 3 at each time point).
The stability of QST in mouse plasma was also tested at 0, 2, 8, 16, or 24 hours (n = 3 at each time point) in the presence of esterase inhibitors: 0.25 mM BNPP, 1mM dithiobis(2-nitrobenzoic acid) (DTNB), or 1.25 mM phenylmethylsulfonyl fluoride (PMSF). Plasma and brain homogenate samples were stored at −80 °C until LC-MS/MS analysis. […]
Supplemental Figure 4. Stability of QST in mouse plasma is improved upon addition of esterase inhibitors. (A) Stability of QST (100 nM) in mouse plasma and mouse brain homogenate when sample preparation is performed at 4 °C. (B) Stability of QST (500 nM) in mouse plasma spiked with 3 different esterase inhibitors: 0.25 mM bis(p-nitrophenyl) phosphate (BNPP), 1.25 mM phenylmethylsulfonyl fluoride (PMSF), and 1 mM dithiobis(2-nitrobenzoic acid) (DTNB) over the course of 24 hours at 37 °C. (C) Stability of QST (10 nM and 100 nM) in neurobasal cell culture medium over the course of 24 hours at 37 °C.

orthotopic GB126 tumors = experiment: Bioluminescence imaging of tumor burden, orthotopic GB126 PDX; assay type: in vivo, athymic nude mice; settings: individual mice
Protocol: We additionally questioned whether QST, either alone or in combination with IR, could extend the survival of tumor-bearing mice. In this study, mice received the same treatments described above, but after completion of the 1-week IR regimen, mice continued to receive QST at 10 mg/kg or vehicle solution on MWF until study completion, as determined by large tumor burden and onset of neurological symptoms (Figure 8A). […] Although QST monotherapy slowed tumor growth, median survival for the QST-treated mice was only 4 days longer than for the vehicle-treated mice (P < 0.01), and IR alone increased median survival by 17 days (P < 0.001; Figure 8D). However, combining QST with IR led to a significant increase in median survival (37 days, P < 0.001) compared with the vehicle (Figure 8D). […]
Rad225XL irradiator (Precision X -Ray). […]
Live Bioluminescence Imaging
Two weeks after implantation, mice were examined for tumor growth by monitoring bioluminescence every 7 days using the IVIS Xenogen Spectrum platform. D -Luciferin Potassium Salt (Gold Biotechnology) was dissolved in PBS at a final concentration of 15 mg/mL. All mice were weighed each week and administered D -Luciferin via an intraperitoneal injection (10 μl/g). Fifteen minutes after injection, the mice were sedated using gaseous isoflurane (Piramal) and placed inside an IVIS Spectrum in vivo imaging system (Perkin Elmer) […]
for bioluminescence imaging. The total flux (photons/second) within the region of interest was calculated using the Living Image software 4.5 (Perkin Elmer).
Preparation of QST for In Vivo Use
For in vivo preparation, QST was dissolved in 50% polyethylene glycol (PEG) 300, 50% sterile water solution for 10 mg/kg dosing. The suspension was then sonicated for 10 minutes to allow the drug to completely dissolve. Finally, the pH of both the drug and the vehicle solutions was adjusted to 7.4 before intraperitoneal dosing. […]
In Vivo Irradiation Studies
Intracranial or flank tumor–bearing nude mice were sedated with gaseous isoflurane before
IR. On the first week of treatment, 2 hours after treatment with QST or vehicle, the mice were […]

Cn1cc(CNCC2CCN(c3ncc(C(=O)NO)cn3)CC2)c2ccccc21 [QST, quisinostat]
%stability ([1]; mouse plasma with 0.25mM BNPP, time 0): 107.9% and 91.2% and 100.9% | %stability ([1]; mouse plasma with 0.25mM BNPP, time 0, mean): 100.0% | %stability ([1]; mouse plasma with 0.25mM BNPP, time 2): 64.6% and 83.0% and 82.7% | %stability ([1]; mouse plasma with 0.25mM BNPP, time 2, mean): 76.8% | %stability ([1]; mouse plasma with 0.25mM BNPP, time 8): 61.2% and 65.8% and 67.9% | %stability ([1]; mouse plasma with 0.25mM BNPP, time 8, mean): 65.0% | %stability ([1]; mouse plasma with 0.25mM BNPP, time 16): 53.0% and 52.9% and 53.7% | %stability ([1]; mouse plasma with 0.25mM BNPP, time 16, mean): 53.2% | %stability ([1]; mouse plasma with 0.25mM BNPP, time 24): 47.9% and 55.7% and 51.9% | %stability ([1]; mouse plasma with 0.25mM BNPP, time 24, mean): 51.8% | %stability ([1]; mouse plasma with 1mM DTNB, time 0): 107.9% and 91.2% and 100.9% | %stability ([1]; mouse plasma with 1mM DTNB, time 0, mean): 100.0% | %stability ([1]; mouse plasma with 1mM DTNB, time 2): 20.7% and 19.1% and 20.9% | %stability ([1]; mouse plasma with 1mM DTNB, time 2, mean): 20.2% | %stability ([1]; mouse plasma with 1mM DTNB, time 8): 0.277% and 0.7% | %stability ([1]; mouse plasma with 1mM DTNB, time 8, mean): 0.5% | %stability ([1]; mouse plasma with 1mM DTNB, time 16): 0.6% and 0.5% | %stability ([1]; mouse plasma with 1mM DTNB, time 16, mean): 0.545% | %stability ([1]; mouse plasma with 1mM DTNB, time 24): 0.7% and 0.6% and 0.25% | %stability ([1]; mouse plasma with 1mM DTNB, time 24, mean): 0.5% | %stability ([1]; mouse plasma with 1.25mM PMFS, time 0): 107.9% and 91.2% and 100.9% | %stability ([1]; mouse plasma with 1.25mM PMFS, time 0, mean): 100.0% | %stability ([1]; mouse plasma with 1.25mM PMFS, time 2): 61.9% and 64.2% and 59.2% | %stability ([1]; mouse plasma with 1.25mM PMFS, time 2, mean): 61.8% | %stability ([1]; mouse plasma with 1.25mM PMFS, time 8): 26.3% and 24.6% and 23.5% | %stability ([1]; mouse plasma with 1.25mM PMFS, time 8, mean): 24.8% | %stability ([1]; mouse plasma with 1.25mM PMFS, time 16): 6.1% and 5.9% and 7.1% | %stability ([1]; mouse plasma with 1.25mM PMFS, time 16, mean): 6.4% | %stability ([1]; mouse plasma with 1.25mM PMFS, time 24): 4.3% and 3.8% | %stability ([1]; mouse plasma with 1.25mM PMFS, time 24, mean): 4.0% | IVIS imaging, bioluminescence (orthotopic GB126 tumors; Qstat 10 mg/kg + IR 6 Gy, day 0 post Tx start (baseline)): 75600000 photons/seconds and 79700000 photons/seconds and 125000000 photons/seconds and 47900000 photons/seconds and 137000000 photons/seconds and 47600000 photons/seconds and 28100000 photons/seconds and 33000000 photons/seconds and 18800000 photons/seconds and 23200000 photons/seconds | IVIS imaging, bioluminescence (orthotopic GB126 tumors; Qstat 10 mg/kg + IR 6 Gy, day 8 post Tx start): 37000000 photons/seconds and 56500000 photons/seconds and 14000000 photons/seconds and 16000000 photons/seconds and 118000000 photons/seconds and 67200000 photons/seconds and 5460000 photons/seconds and 2880000 photons/seconds and 542000 photons/seconds and 178000000 photons/seconds | IVIS imaging, bioluminescence (orthotopic GB126 tumors; Qstat 10 mg/kg + IR 6 Gy, day 29 post Tx start): 111000000 photons/seconds and 75900000 photons/seconds and 60800000 photons/seconds and 55400000 photons/seconds and 150000000 photons/seconds and 22000000 photons/seconds and 8210000 photons/seconds and 10600000 photons/seconds and 10200000 photons/seconds and 15700000 photons/seconds | IVIS imaging, bioluminescence (orthotopic GB126 tumors; Qstat 10 mg/kg + IR 6 Gy, day 36 post Tx start): 9000000 photons/seconds and 4380000 photons/seconds and 371000000 photons/seconds and 40800000 photons/seconds and 426000000 photons/seconds and 6690000 photons/seconds and 51000000 photons/seconds and 114000000 photons/seconds and 111000000 photons/seconds | IVIS imaging, bioluminescence (orthotopic GB126 tumors; Qstat 10 mg/kg + IR 6 Gy, day 43 post Tx start): 943000000 photons/seconds and 1020000000 photons/seconds and 359000000 photons/seconds and 413000000 photons/seconds and 832000000 photons/seconds and 252000000 photons/seconds (2×) and 865000000 photons/seconds and 139000000 photons/seconds and 55200000 photons/seconds | IVIS imaging, bioluminescence (orthotopic GB126 tumors; Qstat 10 mg/kg + IR 6 Gy, day 50 post Tx start): 1010000000 photons/seconds and 2140000000 photons/seconds and 260000000 photons/seconds and 1180000000 photons/seconds and 4090000000 photons/seconds and 2810000000 photons/seconds and 808000000 photons/seconds and 15100000 photons/seconds and 286000000 photons/seconds | IVIS imaging, bioluminescence (orthotopic GB126 tumors; Qstat 10 mg/kg + IR 6 Gy, day 57 post Tx start): 6040000000 photons/seconds and 4070000000 photons/seconds and 1070000000 photons/seconds and 2530000000 photons/seconds and 1020000000 photons/seconds and 1870000000 photons/seconds and 1150000000 photons/seconds | IVIS imaging, bioluminescence (orthotopic GB126 tumors; Qstat 10 mg/kg alone, day 0 post Tx start (baseline), PDX model): 86400000 photons/seconds and 33100000 photons/seconds and 140000000 photons/seconds and 26400000 photons/seconds and 105000000 photons/seconds and 45000000 photons/seconds and 52600000 photons/seconds and 53600000 photons/seconds and 60100000 photons/seconds and 13600000 photons/seconds | IVIS imaging, bioluminescence (orthotopic GB126 tumors; Qstat 10 mg/kg alone, day 8 post Tx start): 42100000 photons/seconds and 58500000 photons/seconds and 585000000 photons/seconds and 200000000 photons/seconds and 458000000 photons/seconds and 884000000 photons/seconds and 49000000 photons/seconds and 19500000 photons/seconds and 581000000 photons/seconds and 107000000 photons/seconds | IVIS imaging, bioluminescence (orthotopic GB126 tumors; Qstat 10 mg/kg alone, day 15 post Tx start): 5290000 photons/seconds and 888000000 photons/seconds and 5530000 photons/seconds and 4270000 photons/seconds and 7590000 photons/seconds and 19400000 photons/seconds | IVIS imaging, bioluminescence (orthotopic GB126 tumors; Qstat 10 mg/kg alone, day 29 post Tx start): 1550000000 photons/seconds and 10600000000 photons/seconds and 15100000000 photons/seconds and 7070000000 photons/seconds and 3880000000 photons/seconds and 387000000 photons/seconds and 12600000000 photons/seconds and 413000000 photons/seconds and 4430000000 photons/seconds
